Assay results taken from ChEMBL document CHEMBL1129916, “Topoisomerase II inhibitors. Synthetic hybridization of 4-quinolones and anthracyclines” (Bioorg Med Chem Lett, 1997).
The source made the active and inactive calls. The rule behind the calls is not given here.

Tests used:
[1] = In vitro activity in agar dilution-streak assay against Gram-negative bacteria at 100 ug/ml; IA means Inactive; format: functional
Bacteria = experiment: In vitro activity in agar dilution-streak assay against Gram-positive bacteria at 100 ug/ml; IA means Inactive; format: functional, organism-based
B16-F10 = experiment: In vitro inhibitory activity against B16F10 tumor cells; IA= Inactive; format: functional, cell-based, Mus musculus
Nucleic Acid = experiment: Inhibitory against Escherichia coli derived DNA gyrase II as ability to induce strand breakage; IA means Inactive; format: nucleic-acid assay
A549 = experiment: In vitro inhibitory activity against A549 tumor cell culture; IA= Inactive; format: functional, cell-based, Homo sapiens
P388 = experiment: In vitro inhibitory activity against P-388 tumor cells; IA= Inactive; format: functional, cell-based, Mus musculus
HT-29 = experiment: In vitro inhibitory activity against HT-29 tumor cells; IA= inactive; format: functional, cell-based, Homo sapiens

Row | IC50 (B16-F10) | Activity (Nucleic Acid) | IC50 (A549) | IC50 (P388) | IC50 (HT-29) | SMILES | Activity [1] | Activity (Bacteria)
1 | Not Active | inactive | Not Active | Not Active | Not Active | O=C1c2ccccc2C(=O)c2c(O)c3c(c(O)c21)C(=O)C(C(=O)O)CN3C1CC1 (stereo not drawn) | inactive | inactive
2 | Not Active | inactive | Not Active | Not Active | Not Active | CCN1CC(C(=O)O)C(=O)c2c(O)c3c(c(O)c21)C(=O)c1ccccc1C3=O (stereo not drawn) | inactive | inactive
3 | Not Active | inactive | Not Active | Not Active | Not Active | O=C1c2ccccc2C(=O)c2c(O)c3c(c(O)c21)C(=O)C(C(=O)O)CN3c1ccc(F)cc1 (stereo not drawn) | inactive | inactive
4 | – | – | – | – | – | O=C(O)c1cn(C2CC2)c2cc(N3CCNCC3)c(F)cc2c1=O | inactive | inactive
